Experimental data: the supplement of paper PMC10307832

Legend:
Experiment in all cases: relative viability (nuclei count vs DMSO), 5 days (fraction); higher = more cells survive
[1] = compound: COC1=CC=C(C=C1)CN2C=CC3=C2C=C(C=C3)C(=O)NO + CC(=O)Nc1cccc(-n2c(=O)n(C3CC3)c(=O)c3c(Nc4ccc(I)cc4F)n(C)c(=O)c(C)c32)c1 [Trametinib] (partner 0.02 µM)
Outline: (§1)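 A single step with final 0.05% Triton X-100, 1% formaldehyde and 1 ug/ml Hoechst fixed the cells and stained nuclei 5 days after treatment. Lung cancer cell lines in 1536-well plates had been treated by pin tool the day after seeding with one drug alone or a fixed anchor-drug dose plus five library-drug doses (not always all listed) in √10 steps, and nuclei were counted on 4× images. Relative viability is the ratio of nuclei in treated wells to nuclei in vehicle wells, taken as the median of duplicate plates.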

[2] = compound: COC1=CC=C(C=C1)CN2C=CC3=C2C=C(C=C3)C(=O)NO + Cc1nc(NC(=O)N2CCC[C@H]2C(N)=O)sc1-c1ccnc(C(C)(C)C(F)(F)F)c1 [Alpelisib] (partner 2 µM)
Outline: as §1

[3] = compound: COC1=CC=C(C=C1)CN2C=CC3=C2C=C(C=C3)C(=O)NO + N=C(N)NC(=N)NCCc1ccccc1 [Phenformin] (partner 250 µM)
Outline: as §1

Veliparib + Vorinostat = compound: C[C@]1(c2nc3c(C(N)=O)cccc3[nH]2)CCCN1 [Veliparib] + O=C(CCCCCCC(=O)Nc1ccccc1)NO [Vorinostat] (partner 1 µM)
Outline: as §1

Cell Line	relative viability ([1]; first compound 0.08 µM)	relative viability ([1]; first compound 0.253 µM)	relative viability ([1]; first compound 0.8 µM)	relative viability ([1]; first compound 2.53 µM)	relative viability ([1]; first compound 8 µM)	relative viability ([2]; first compound 0.08 µM)	relative viability ([2]; first compound 0.253 µM)	relative viability ([2]; first compound 0.8 µM)	relative viability ([2]; first compound 2.53 µM)	relative viability ([2]; first compound 8 µM)	relative viability ([3]; first compound 0.08 µM)	relative viability ([3]; first compound 0.253 µM)	relative viability ([3]; first compound 0.8 µM)	relative viability ([3]; first compound 2.53 µM)	relative viability ([3]; first compound 8 µM)	relative viability (Veliparib + Vorinostat; first compound 0.02 µM)	relative viability (Veliparib + Vorinostat; first compound 0.06325 µM)	relative viability (Veliparib + Vorinostat; first compound 0.2 µM)	relative viability (Veliparib + Vorinostat; first compound 0.6325 µM)	relative viability (Veliparib + Vorinostat; first compound 2 µM)
201T	0.769	0.733	0.773	0.743	0.701	0.948	1.08	1.07	1.03	1	0.487	0.466	0.453	0.431	0.35	0.922	0.954	0.929	1.16	0.928
A549	–	–	–	–	–	0.643	0.812	0.743	0.749	0.58	–	0.159	0.173	0.188	0.0674	–	–	–	–	–
A-427	0.346	–	0.813	0.781	0.675	–	1.15	1.13	1.15	1.06	–	0.344	0.357	0.314	0.235	0.813	0.867	0.867	0.842	0.934
ABC-1	–	–	–	–	–	–	1.37	0.928	1	1.17	–	0.216	0.246	0.296	0.234	–	–	0.979	1.37	0.875
BEN	0.936	1.03	0.942	0.889	0.961	0.972	1.07	1.06	0.967	0.929	0.267	0.224	0.263	0.269	0.259	0.544	0.615	0.62	0.614	0.593
CAL-12T	0.387	0.347	0.33	0.335	0.301	1.22	1.31	1.19	1.19	1.24	0.643	0.563	0.589	0.581	0.493	0.695	0.834	0.729	0.589	0.886
COR-L23	0.5	0.617	0.627	0.615	0.522	0.493	0.897	0.793	0.892	0.551	0.369	0.441	0.437	0.447	0.422	0.604	0.353	0.408	0.445	0.354
COR-L 105	0.348	0.469	0.443	0.471	0.385	–	0.93	1.04	0.942	0.929	0.383	0.492	0.335	0.34	0.271	1.02	0.823	0.869	0.698	0.813
Calu-6	–	–	–	–	–	0.859	0.881	0.897	1.02	0.815	–	–	–	–	–	–	–	–	–	–
ChaGo-K-1	–	0.924	0.887	0.861	0.803	–	–	–	–	–	–	0.539	0.484	0.438	0.374	0.555	0.735	0.662	0.65	0.74
EBC-1	–	–	–	–	–	0.817	0.842	0.848	0.815	0.737	–	–	–	–	–	–	–	–	–	–
EKVX	–	0.28	0.345	0.366	0.305	0.749	0.856	0.878	0.91	0.897	0.192	0.239	0.264	0.225	0.219	–	0.745	0.789	0.626	0.66
EMC-BAC-2	0.629	–	0.971	0.95	0.803	0.633	0.749	0.799	0.77	0.71	0.367	0.543	0.422	0.526	0.449	0.606	–	0.646	0.638	0.493
EPLC-272H	–	0.314	0.297	0.308	0.238	0.875	0.976	0.985	0.864	0.875	0.265	–	0.329	0.318	0.333	–	0.457	0.424	0.518	0.474
H3255	0.593	0.608	0.618	0.672	0.547	0.629	0.722	0.679	0.717	0.621	0.334	0.39	0.347	0.353	0.359	0.707	0.768	0.793	0.799	0.936
HARA	–	0.607	0.668	0.849	0.705	0.149	0.851	0.765	0.917	0.693	–	0.455	0.511	0.43	0.317	–	0.492	0.521	0.529	0.565
HCC-15	0.334	0.355	0.424	0.41	0.372	0.74	0.989	0.898	0.93	0.853	0.344	0.515	0.486	0.483	0.408	0.838	0.927	0.862	0.803	0.757
HCC-44	1.04	1.02	0.996	1.04	1.06	0.732	0.901	0.786	0.823	0.778	0.166	0.231	0.185	0.228	0.16	1.07	1.03	1.07	1.06	1.15
HCC-78	0.671	0.807	0.634	0.798	0.613	–	0.359	0.395	0.35	0.305	0.62	0.63	0.718	0.818	0.65	0.5	0.437	0.453	0.44	0.452
HCC-366	0.293	0.28	0.328	0.295	0.333	–	0.435	0.384	0.587	0.406	0.633	0.624	0.634	0.599	0.532	0.379	0.232	0.296	0.27	0.289
HCC-827	0.539	0.537	0.528	0.533	0.514	0.975	0.947	1.01	0.995	0.969	0.427	0.382	0.386	0.417	0.394	0.764	0.834	0.793	0.671	0.746

Cell Line	relative viability ([1]; first compound 0.08 µM)	relative viability ([1]; first compound 0.253 µM)	relative viability ([1]; first compound 0.8 µM)	relative viability ([1]; first compound 2.53 µM)	relative viability ([1]; first compound 8 µM)	relative viability ([2]; first compound 0.08 µM)	relative viability ([2]; first compound 0.253 µM)	relative viability ([2]; first compound 0.8 µM)	relative viability ([2]; first compound 2.53 µM)	relative viability ([2]; first compound 8 µM)	relative viability ([3]; first compound 0.08 µM)	relative viability ([3]; first compound 0.253 µM)	relative viability ([3]; first compound 0.8 µM)	relative viability ([3]; first compound 2.53 µM)	relative viability ([3]; first compound 8 µM)	relative viability (Veliparib + Vorinostat; first compound 0.02 µM)	relative viability (Veliparib + Vorinostat; first compound 0.06325 µM)	relative viability (Veliparib + Vorinostat; first compound 0.2 µM)	relative viability (Veliparib + Vorinostat; first compound 0.6325 µM)	relative viability (Veliparib + Vorinostat; first compound 2 µM)
HOP-62	0.362	0.399	0.371	0.391	0.375	0.71	0.996	0.985	0.932	0.947	0.583	0.658	0.696	0.643	0.623	0.557	0.527	0.593	0.539	0.68
IA-LM	–	–	–	–	–	0.609	0.743	0.732	0.852	0.776	–	–	–	–	–	0.925	0.906	0.888	0.789	0.969
LC-2-ad	0.841	0.899	0.882	0.938	0.991	0.857	0.861	0.833	0.973	0.877	0.493	0.577	0.561	0.588	0.479	0.434	0.656	0.717	0.655	0.788
LCLC-97TM1	–	0.201	0.228	0.19	0.204	–	0.242	0.242	0.255	0.233	0.176	0.399	0.441	0.46	0.353	0.455	0.797	0.849	0.632	0.637
LCLC-103H	0.653	0.65	0.715	0.694	0.679	0.998	0.992	0.954	1.03	0.855	0.339	0.339	0.398	0.347	0.287	0.846	0.726	0.819	0.749	0.77
LK-2	0.534	0.694	0.658	0.686	0.646	–	1.11	0.896	1.13	0.907	–	0.462	0.579	0.396	0.24	0.223	0.284	0.319	0.258	0.29
LOU-NH91	–	0.754	0.778	0.808	0.766	0.635	0.71	0.769	0.731	0.69	0.612	0.678	0.702	0.766	0.637	0.846	0.842	0.919	0.822	0.945
LU99A	–	0.61	0.553	0.548	0.455	–	0.552	0.624	0.605	0.479	–	0.826	0.915	0.875	0.685	0.513	0.477	0.396	0.441	0.402
LXF-289	–	0.698	0.712	0.677	0.677	0.394	1.03	1.12	1.05	1.01	–	0.554	0.517	0.512	0.508	0.809	0.812	0.743	0.655	0.794
NCI-H23	0.298	0.445	0.397	0.381	0.283	0.535	0.834	0.643	0.737	0.756	0.699	0.843	0.852	0.712	0.653	0.633	0.45	0.544	0.543	0.56
NCI-H322M	–	–	0.493	0.495	0.485	–	0.726	0.769	0.845	0.656	–	0.821	0.762	0.737	0.763	–	0.873	0.899	0.976	0.717
NCI-H522	–	0.812	0.678	0.767	0.64	–	–	–	–	–	–	0.591	0.614	0.654	0.651	0.832	0.825	0.736	0.84	0.979
NCI-H1299	–	–	–	–	–	1.09	1.05	1.05	1.08	1.04	–	–	–	–	–	–	–	–	–	–
NCI-H1563	–	–	–	–	–	0.798	0.947	0.946	0.964	0.839	0.622	0.676	0.671	0.664	0.534	–	–	–	–	–
NCI-H1623	–	–	–	–	–	–	–	–	–	–	0.396	0.581	0.542	0.616	0.513	–	–	–	–	–
NCI-H1648	0.413	0.42	0.461	0.583	0.438	–	–	–	–	–	–	–	–	–	–	0.481	–	–	0.572	0.424
NCI-H1650	0.543	0.595	0.645	0.624	0.539	–	–	–	–	–	0.4	0.447	0.422	0.334	0.204	0.57	0.471	0.523	0.627	0.6
NCI-H1703	–	–	–	–	–	0.337	0.324	0.328	0.344	0.381	–	–	–	–	–	–	–	–	–	–
NCI-H1792	0.459	0.426	0.394	0.379	0.423	0.663	0.765	0.744	0.741	0.617	0.455	0.358	0.29	0.19	0.129	–	–	–	–	–
NCI-H2342	0.815	0.901	0.759	0.971	0.861	–	–	–	–	–	0.588	0.511	0.48	0.453	0.409	0.787	0.718	0.732	0.714	0.703
SW 900	0.722	0.774	0.872	0.674	0.766	–	–	–	–	–	0.643	0.652	0.593	0.512	0.339	–	0.452	0.472	0.606	0.463
